Measurements taken from patent US9302999B2, “Substituted triazoles as herbicides” (E. I. DU PONT DE NEMOURS AND COMPANY, priority 2012, dated 2016).

Assays:
Type in all cases: in vivo
[1] = test system: velvetleaf (Abutilon theophrasti); test: Test A pre-/postemergence: velvetleaf
Outline: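 Seeds were sown in loam/sand blend and sprayed preemergence (directed soil spray) and, simultaneously, postemergence at 2–10 cm, one- to two-leaf stage, using compounds in non-phytotoxic solvent with surfactant. After ~10 days in greenhouse, injury was rated visually versus untreated controls, 0 (no effect) to 100 (complete control).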

[2] = test system: sedge, umbrella (small-flower umbrella sedge Cyperus difformis); test: Test B flooded paddy: sedge, umbrella; conditions: Flood; 125 g ai/ha; applied to paddy water at 2-leaf stage; visually evaluated after 13 to 15 days
Outline: (§1)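 2-leaf plants; pots flooded 3 cm over soil; compound added to paddy water, depth kept constant. Greenhouse 13–15 d. Visual rating vs controls, 0–100 scale (100 = complete control); dash = no result.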

[3] = test system: ducksalad (Heteranthera limosa); test: Test B flooded paddy: ducksalad; conditions: Flood; 125 g ai/ha; applied to paddy water at 2-leaf stage; visually evaluated after 13 to 15 days
Outline: as §1

[4] = test system: barnyardgrass (Echinochloa crus-galli); test: Test B flooded paddy: barnyardgrass; conditions: Flood; 125 g ai/ha; applied to paddy water at 2-leaf stage; visually evaluated after 13 to 15 days
Outline: as §1

[5] = test system: blackgrass (Alopecurus myosuroides); test: Test C pre-/postemergence: blackgrass
Outline: (§2)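 Visual injury scored 0–100 (100 = complete control) against untreated controls after 13–15 greenhouse days. Surfactant-containing solvent formulations applied either to soil after sowing (loam/sand) or over 1- to 4-leaf plants, 2–18 cm tall.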

[6] = test system: ryegrass, Italian (Italian ryegrass, Lolium multiflorum); test: Test C pre-/postemergence: ryegrass, Italian
Outline: as §2

[7] = test system: winter wheat (Triticum aestivum); test: Test C pre-/postemergence: winter wheat
Outline: as §2

corn (Zea mays) = test: Test C pre-/postemergence: corn
Outline: as §2

[8] = test system: large crabgrass (Digitaria sanguinalis); test: Test C pre-/postemergence: large crabgrass
Outline: as §2

[9] = test system: morningglory (Ipomoea coccinea); test: Test C pre-/postemergence: morningglory
Outline: as §2

[10] = test system: chickweed (common chickweed, Stellaria media); test: Test C postemergence: chickweed
Outline: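 Response values are visual ratings, 0 (no effect) to 100 (complete control), made by comparison with untreated controls 13 to 15 days after postemergence treatment of greenhouse-grown potted plants that were 2 to 18 cm high at spraying.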

[11] = Postemergence, 125 g ai/ha, 0 to 100 scale, 0 is no effect, 100 is complete control
[12] = Postemergence, 500 g ai/ha, 0 to 100 scale, 0 is no effect, 100 is complete control
[13] = Preemergence, 125 g ai/ha, 0 to 100 scale where 0 is no effect and 100 is complete control
[14] = Preemergence, 500 g ai/ha, 0 to 100 scale (0 no effect, 100 complete control)
[15] = Postemergence, 31 g ai/ha, scale 0 to 100 (0 no effect, 100 complete control)
[16] = Postemergence, 62 g ai/ha, scale 0 to 100 (0 no effect, 100 complete control)
[17] = Postemergence, 125 g ai/ha, scale 0 to 100, 0 no effect, 100 complete control
[18] = Postemergence, 250 g ai/ha, scale 0 to 100
[19] = Preemergence, 31 g ai/ha, scale 0 (no effect) to 100 (complete control)
[20] = Preemergence, 62 g ai/ha, scale of 0 to 100, 0 is no effect, 100 is complete control
[21] = Preemergence, 125 g ai/ha, scale 0 to 100, 0 no effect, 100 complete control
[22] = Preemergence, 250 g ai/ha, scale 0 to 100, 0 no effect, 100 complete control
[23] = Postemergence, 250 g ai/ha, scale 0 to 100 (0 no effect, 100 complete control)
[24] = 31 g ai/ha, scale 0 to 100 (0 no effect, 100 complete control)
[25] = 62 g ai/ha, scale 0 to 100 (0 no effect, 100 complete control)
[26] = 125 g ai/ha, scale 0 to 100, 0 no effect, 100 complete control

For CCc1nn(-c2ccc(C(F)(F)F)c(F)c2)nc1Oc1ccnc(C(F)(F)F)c1 [Compound 183], the “Plant response rating, Velvetleaf” value [1, 11] was 100, the “Velvetleaf plant response rating” value [1, 12] was 100 and the “Plant response rating, Velvetleaf” value [1, 13] was 70. For the same molecule, the “Plant response rating, Velvetleaf” value [1, 14] was 80, the “Plant response rating, Sedge, Umbrella (0 to 100 scale, 0 is no effect, 100 is complete control)” value [2] was 95 and the “Plant response rating, Ducksalad (0 to 100 scale, 0 is no effect, 100 is complete control)” value [3] was 65. The “Plant response rating, Barnyardgrass (0 to 100 scale, 0 is no effect, 100 is complete control)” value [4] was 30, the “Plant response rating, Blackgrass” value [5, 15] was 10 and the “Plant response rating, Blackgrass” value [5, 16] was 20. For the same molecule, the “Plant response rating, Blackgrass” value [5, 17] was 60, the “Plant response rating, Blackgrass” value [5, 18] was 60 and the “Plant response rating, Blackgrass” value [5, 19] was 80. The “Plant response rating, Blackgrass” value [5, 20] was 95, the “Plant response rating, Blackgrass” value [5, 21] was 95 and the “Plant response rating, Blackgrass” value [5, 22] was 100. For the same molecule, the “Plant response rating, Ryegrass, Italian” value [6, 15] was 10, the “Plant response rating, Ryegrass, Italian” value [6, 16] was 15 and the “Plant response rating, Ryegrass, Italian” value [6, 17] was 20. For the same molecule, the “Plant response rating, Ryegrass, Italian” value [6, 23] was 40, the “Plant response rating, Ryegrass, Italian” value [6, 19] was 65 and the “Plant response rating, Ryegrass, Italian” value [6, 20] was 80. The “Plant response rating, Ryegrass, Italian” value [6, 21] was 90, the “Plant response rating, Ryegrass, Italian” value [6, 22] was 95 and the “Plant response rating, Wheat” value [7, 15] was 10. For the same molecule, the “Plant response rating, Wheat” value [7, 16] was 20, the “Plant response rating, Wheat” value [7, 17] was 20 and the “Plant response rating, Wheat” value [7, 23] was 30. The “Plant response rating, Wheat” value [7, 19] was 5, the “Plant response rating, Wheat” value [7, 20] was 10 and the “Plant response rating, Wheat” value [7, 21] was 35. The “Plant response rating, Wheat” value [7, 22] was 40, the “Plant response rating, Corn” value (corn (Zea mays); [15]) was 10 and the “Plant response rating, Corn” value (corn (Zea mays); [16]) was 20. For the same molecule, the “Plant response rating, Corn” value (corn (Zea mays); [18]) was 30, the “Plant response rating, Corn” value (corn (Zea mays); [19]) was 15 and the “Plant response rating, Corn” value (corn (Zea mays); [20]) was 15. The “Plant response rating, Corn” value (corn (Zea mays); [21]) was 40, the “Plant response rating, Corn” value (corn (Zea mays); [22]) was 40 and the “Plant response rating, Crabgrass, Large” value [8, 15] was 25. For the same molecule, the “Plant response rating, Crabgrass, Large” value [8, 16] was 35, the “Plant response rating, Crabgrass, Large” value [8, 17] was 35 and the “Plant response rating, Crabgrass, Large” value [8, 18] was 85. The “Plant response rating, Crabgrass, Large” value [8, 19] was 100, the “Plant response rating, Crabgrass, Large” value [8, 20] was 100 and the “Plant response rating, Crabgrass, Large” value [8, 21] was 100. For the same molecule, the “Plant response rating, Crabgrass, Large” value [8, 22] was 100, the “Plant response rating, Morningglory” value [9, 15] was 98 and the “Plant response rating, Morningglory” value [9, 16] was 98. For the same molecule, the “Plant response rating, Morningglory” value [9, 17] was 100, the “Plant response rating, Morningglory” value [9, 23] was 100 and the “Plant response rating, Morningglory” value [9, 19] was 30. The “Plant response rating, Morningglory” value [9, 20] was 45, the “Plant response rating, Morningglory” value [9, 21] was 70 and the “Plant response rating, Morningglory” value [9, 22] was 95. The “Plant response rating, Chickweed” value [10, 24] was 75, the “Plant response rating, Chickweed” value [10, 25] was 75 and the “Plant response rating, Chickweed” value [10, 26] was 80. The “Plant response rating, Chickweed” value ([10]; 250 g ai/ha, scale 0 to 100) was 98.

For CCOc1nn(-c2ccc(Cl)cc2)nc1Cc1ccnc(C(F)(F)F)c1 [Compound 188], the “Plant response rating, Velvetleaf” value [1, 11] was 70, the “Velvetleaf plant response rating” value [1, 12] was 90 and the “Plant response rating, Velvetleaf” value [1, 13] was 40. The “Plant response rating, Velvetleaf” value [1, 14] was 90, the “Plant response rating, Sedge, Umbrella (0 to 100 scale, 0 is no effect, 100 is complete control)” value [2] was 100 and the “Plant response rating, Ducksalad (0 to 100 scale, 0 is no effect, 100 is complete control)” value [3] was 90. The “Plant response rating, Barnyardgrass (0 to 100 scale, 0 is no effect, 100 is complete control)” value [4] was 75, the “Plant response rating, Blackgrass” value [5, 15] was 55 and the “Plant response rating, Blackgrass” value [5, 16] was 55. For the same molecule, the “Plant response rating, Blackgrass” value [5, 17] was 85, the “Plant response rating, Blackgrass” value [5, 18] was 90 and the “Plant response rating, Blackgrass” value [5, 19] was 80. For the same molecule, the “Plant response rating, Blackgrass” value [5, 20] was 100, the “Plant response rating, Blackgrass” value [5, 21] was 100 and the “Plant response rating, Blackgrass” value [5, 22] was 100. The “Plant response rating, Ryegrass, Italian” value [6, 15] was 50, the “Plant response rating, Ryegrass, Italian” value [6, 16] was 70 and the “Plant response rating, Ryegrass, Italian” value [6, 17] was 85. For the same molecule, the “Plant response rating, Ryegrass, Italian” value [6, 23] was 90, the “Plant response rating, Ryegrass, Italian” value [6, 19] was 60 and the “Plant response rating, Ryegrass, Italian” value [6, 20] was 65. For the same molecule, the “Plant response rating, Ryegrass, Italian” value [6, 21] was 95, the “Plant response rating, Ryegrass, Italian” value [6, 22] was 98 and the “Plant response rating, Wheat” value [7, 15] was 20. For the same molecule, the “Plant response rating, Wheat” value [7, 16] was 30, the “Plant response rating, Wheat” value [7, 17] was 45 and the “Plant response rating, Wheat” value [7, 23] was 50. The “Plant response rating, Wheat” value [7, 19] was 30, the “Plant response rating, Wheat” value [7, 20] was 30 and the “Plant response rating, Wheat” value [7, 21] was 35. For the same molecule, the “Plant response rating, Wheat” value [7, 22] was 40, the “Plant response rating, Corn” value (corn (Zea mays); [15]) was 10 and the “Plant response rating, Corn” value (corn (Zea mays); [16]) was 20. For the same molecule, the “Plant response rating, Corn” value (corn (Zea mays); [17]) was 20, the “Plant response rating, Corn” value (corn (Zea mays); [18]) was 35 and the “Plant response rating, Corn” value (corn (Zea mays); [19]) was 5. For the same molecule, the “Plant response rating, Corn” value (corn (Zea mays); [20]) was 5, the “Plant response rating, Corn” value (corn (Zea mays); [21]) was 10 and the “Plant response rating, Corn” value (corn (Zea mays); [22]) was 20. For the same molecule, the “Plant response rating, Crabgrass, Large” value [8, 15] was 50, the “Plant response rating, Crabgrass, Large” value [8, 16] was 85 and the “Plant response rating, Crabgrass, Large” value [8, 17] was 95. The “Plant response rating, Crabgrass, Large” value [8, 18] was 95, the “Plant response rating, Crabgrass, Large” value [8, 19] was 98 and the “Plant response rating, Crabgrass, Large” value [8, 20] was 100. For the same molecule, the “Plant response rating, Crabgrass, Large” value [8, 21] was 100, the “Plant response rating, Crabgrass, Large” value [8, 22] was 100 and the “Plant response rating, Morningglory” value [9, 15] was 70. For the same molecule, the “Plant response rating, Morningglory” value [9, 16] was 100, the “Plant response rating, Morningglory” value [9, 17] was 100 and the “Plant response rating, Morningglory” value [9, 20] was 60. The “Plant response rating, Morningglory” value [9, 21] was 85, the “Plant response rating, Morningglory” value [9, 22] was 100 and the “Plant response rating, Chickweed” value [10, 24] was 80. For the same molecule, the “Plant response rating, Chickweed” value [10, 25] was 90, the “Plant response rating, Chickweed” value [10, 26] was 90 and the “Plant response rating, Chickweed” value ([10]; 250 g ai/ha, scale 0 to 100) was 95.
